Assay: xn = mol fraction of the nth substance listed
Details: 101 kPa

CCCCCCCCCCCC[N+](C)(C)Cc1ccccc1.[Cl-] + CC(C)[C@H](NC(=O)CN)C(=O)O + O
electrical conductivity [S/m]
Details | 293.15 K | 298.15 K | 303.15 K | 308.15 K | 313.15 K
x2 = 0.0008945, x1 = 0.0002772 | 0.0811 | 0.0911 | 0.102 | 0.114 | 0.127
x2 = 0.0008945, x1 = 0.0002957 | 0.0841 | 0.0945 | 0.106 | 0.118 | 0.132
x2 = 0.0008945, x1 = 0.0003197 | 0.0879 | 0.099 | 0.112 | 0.124 | 0.138
x2 = 0.0008946, x1 = 0.0001647 | 0.0603 | 0.0672 | 0.0747 | 0.0825 | 0.0908
x2 = 0.0008946, x1 = 0.0001903 | 0.066 | 0.0736 | 0.0819 | 0.0907 | 0.1
x2 = 0.0008946, x1 = 0.0002151 | 0.0707 | 0.0791 | 0.0882 | 0.0978 | 0.108
x2 = 0.0008946, x1 = 0.0002373 | 0.0746 | 0.0834 | 0.0932 | 0.103 | 0.115
x2 = 0.0008946, x1 = 0.0002578 | 0.0779 | 0.0874 | 0.0977 | 0.109 | 0.121
x2 = 0.0008947, x1 = 7.118e-05 | 0.0298 | 0.0334 | 0.0372 | 0.041 | 0.0451
x2 = 0.0008947, x1 = 9.37e-05 | 0.0378 | 0.0423 | 0.0471 | 0.052 | 0.0571
x2 = 0.0008947, x1 = 0.0001168 | 0.0458 | 0.0513 | 0.0569 | 0.0627 | 0.0689
x2 = 0.0008947, x1 = 0.00014 | 0.0533 | 0.0596 | 0.0662 | 0.0729 | 0.0801
x2 = 0.0008948, x1 = 4.976e-05 | 0.022 | 0.0246 | 0.0275 | 0.0304 | 0.0335
x2 = 0.001798, x1 = 0.0001623 | 0.0582 | 0.0649 | 0.0722 | 0.0797 | 0.0879
x2 = 0.001798, x1 = 0.0001897 | 0.0643 | 0.0719 | 0.08 | 0.0885 | 0.098
x2 = 0.001798, x1 = 0.0002152 | 0.0693 | 0.0776 | 0.0866 | 0.096 | 0.106
x2 = 0.001798, x1 = 0.0002386 | 0.0736 | 0.0825 | 0.0922 | 0.102 | 0.114
x2 = 0.001798, x1 = 0.0002594 | 0.0773 | 0.0868 | 0.097 | 0.108 | 0.12
x2 = 0.001798, x1 = 0.0002777 | 0.0804 | 0.0903 | 0.101 | 0.113 | 0.126
x2 = 0.001798, x1 = 0.0002962 | 0.0834 | 0.0939 | 0.105 | 0.118 | 0.131
x2 = 0.001798, x1 = 0.0003218 | 0.0878 | 0.099 | 0.112 | 0.124 | 0.139
x2 = 0.001799, x1 = 4.099e-05 | 0.0199 | 0.0223 | 0.0251 | 0.0278 | 0.0307
x2 = 0.001799, x1 = 6.551e-05 | 0.0284 | 0.0319 | 0.0356 | 0.0393 | 0.0433
x2 = 0.001799, x1 = 8.875e-05 | 0.0363 | 0.0406 | 0.0453 | 0.0499 | 0.0549
x2 = 0.001799, x1 = 0.0001114 | 0.0437 | 0.0488 | 0.0543 | 0.0598 | 0.066
x2 = 0.001799, x1 = 0.000136 | 0.0512 | 0.0571 | 0.0635 | 0.0695 | 0.0771
